Here are results for eleven compounds from ChEMBL document CHEMBL1201862, “PubChem BioAssay data set” (2004).

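These data come from cells grown in 96-well plates and exposed to compound for 48 hours at five concentrations. Abbreviation: GI50, concentration required for 50% inhibition of growth.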 Active and inactive are the calls of the source. Rule as the data show it: active = GI50 up to about 1.1 µM and inactive = higher. Where only a bound is given, the exact number is not on record here.

Among the test systems are MOLT-4; HOP-62; Malme-3M; RPMI-8226; UACC-257; SR; SNB-75; MDA-MB-231; OVCAR-8; ACHN; UACC-62; HL-60; SN12C; SK-MEL-5; KM12; NCI-H23; SF-268; SK-MEL-2; OVCAR-5; HCC 2998.
Common to all, as to test: NCI anticancer screen, dose series, 48 h

As to `Oc1c(CN2CCOCC2)ccc(CN2CCOCC2)c1O`, the GI50 in the assay on MOLT-4 was 24.2 µM (inactive); in the assay on HOP-62, 42.3 µM (inactive); in the assay with Malme-3M, 31 µM (inactive); in the assay with RPMI-8226, 50.1 µM (inactive); with UACC-257 it was 27.2 µM (inactive); in the assay on SR it was 24.5 µM (inactive). Moreover, the GI50 in the assay with SNB-75 was 15.1 µM (inactive); in the assay on MDA-MB-231 it was > 100 µM (inactive); in the assay on OVCAR-8, 47.2 µM (inactive); in the assay with ACHN it was 30.9 µM (inactive); with UACC-62, 25.2 µM (inactive); in the assay on HL-60, 3.8 µM (inactive). The GI50 with SN12C is 25.6 µM (inactive); in the assay on SK-MEL-5, 25.5 µM (inactive); in the assay on KM12, 75.7 µM (inactive); with NCI-H23 it was 36.6 µM (inactive); with SF-268, 30.9 µM (inactive); with SK-MEL-2, 29 µM (inactive). In the assay on OVCAR-5, the GI50 is 57 µM (inactive).

With `Nc1nc(SCC(=O)O)nc(O)c1N`, the GI50 in the assay with MOLT-4 was 37.6 µM (inactive); in the assay on HOP-62, > 100 µM (inactive); in the assay with Malme-3M, > 100 µM (inactive); with RPMI-8226, 32.7 µM (inactive); with UACC-257, 70.5 µM (inactive); with SR, 22.6 µM (inactive). For the same compound, the GI50 in the assay on SNB-75 was 50.2 µM (inactive); with MDA-MB-231, > 100 µM (inactive); with OVCAR-8, 78.5 µM (inactive); with ACHN it was > 100 µM (inactive); in the assay with UACC-62, > 100 µM (inactive); in the assay with HL-60, 56.1 µM (inactive). Also, the GI50 with SN12C was 13.3 µM (inactive); with SK-MEL-5, > 100 µM (inactive); in the assay with KM12 it was > 100 µM (inactive); with NCI-H23 it was > 100 µM (inactive); in the assay with SF-268 it was > 100 µM (inactive); with SK-MEL-2, > 100 µM (inactive). Besides, the GI50 in the assay on OVCAR-5 is > 100 µM (inactive).

On to `NC(=S)Nc1nc(=S)[nH]c2c1SC1=N/C(=C\c3ccco3)C(=O)N12`, for which the GI50 in the assay on MOLT-4 was 44.1 µM (inactive); with HOP-62, > 100 µM (inactive); in the assay on Malme-3M it was 44.7 µM (inactive); with RPMI-8226, 29.3 µM (inactive); in the assay on UACC-257, > 100 µM (inactive); in the assay on SR it was 21.1 µM (inactive). Besides, the GI50 in the assay on SNB-75 was > 57.1 µM (inactive); in the assay on MDA-MB-231, > 100 µM (inactive); with OVCAR-8, > 100 µM (inactive); in the assay with ACHN, > 100 µM (inactive); in the assay with UACC-62 it was > 100 µM (inactive); in the assay on HL-60, 19.1 µM (inactive). Besides, the GI50 is > 100 µM (inactive) in the assay on SN12C; > 82.8 µM (inactive) in the assay on SK-MEL-5; 98.6 µM (inactive) with KM12; > 100 µM (inactive) in the assay on NCI-H23; > 100 µM (inactive) in the assay with SF-268; > 83.4 µM (inactive) with SK-MEL-2. Further, the GI50 in the assay on OVCAR-5 is > 100 µM (inactive).

For the compound `CCN(CCO)CC1COc2ccccc2O1` (configuration not stated), the GI50 in the assay on MOLT-4, with HOP-62, in the assay on Malme-3M, in the assay on UACC-257, in the assay with SR and with MDA-MB-231 was > 100 µM (inactive) throughout. Further, the GI50 in the assay with OVCAR-8, in the assay on ACHN, in the assay on UACC-62, in the assay with HL-60, in the assay on SN12C and in the assay with SK-MEL-5 was > 100 µM (inactive) in each case. For the same compound, the GI50 in the assay on HCC 2998, in the assay on KM12, in the assay with NCI-H23, in the assay on SF-268 and in the assay on OVCAR-5 was > 100 µM (inactive) in each case.

As to `CCCC(=O)N1CCN(c2ccc3c(c2)OC(C)O3)CC1` (configuration not stated), the GI50 was > 100 µM (inactive) in the assay on MOLT-4; > 100 µM (inactive) in the assay with HOP-62; > 100 µM (inactive) with Malme-3M; > 100 µM (inactive) in the assay on UACC-257; > 100 µM (inactive) in the assay with SR; 15.4 µM (inactive) in the assay with SNB-75. In addition, the GI50 in the assay on MDA-MB-231, in the assay on OVCAR-8, in the assay with ACHN, with UACC-62, with SN12C and in the assay on SK-MEL-5 was > 100 µM (inactive) throughout. For the same compound, the GI50 with HCC 2998, with KM12, in the assay with NCI-H23, in the assay with SF-268 and in the assay on OVCAR-5 was > 100 µM (inactive) each time.

Regarding `CCOC(=O)Oc1ccc2c(c1)c(=O)c1c(NCCN(CC)CC)ccc3nnn2c31`, the GI50 in the assay on MOLT-4 is < 0.0166 µM (active); in the assay on HOP-62 it was 1.24 µM (inactive); in the assay with Malme-3M it was 2.78 µM (inactive); in the assay on RPMI-8226, 0.908 µM (active); in the assay on UACC-257, 7.35 µM (inactive); in the assay with SR, 0.113 µM (active). Also, the GI50 in the assay on MDA-MB-231 is 2.48 µM (inactive); with OVCAR-8, 0.577 µM (active); in the assay with ACHN, 0.406 µM (active); in the assay on UACC-62 it was 11.5 µM (inactive); in the assay with SN12C it was 0.809 µM (active); in the assay on SK-MEL-5 it was 1.7 µM (inactive). The GI50 in the assay with HCC 2998 is 2.94 µM (inactive); in the assay on KM12, 2.32 µM (inactive); in the assay with NCI-H23, 2.48 µM (inactive); in the assay on SF-268, 1.43 µM (inactive); with SK-MEL-2, 13.2 µM (inactive); in the assay with OVCAR-5 it was 10.6 µM (inactive).

With `O=S(=O)(NC1OCCCC1I)c1ccccc1` (configuration not stated), the GI50 in the assay with MOLT-4 is > 100 µM (inactive); with HOP-62 it was > 100 µM (inactive); with Malme-3M, > 100 µM (inactive); in the assay with RPMI-8226, 43.2 µM (inactive); with UACC-257 it was > 100 µM (inactive); with SR, > 100 µM (inactive). Further, the GI50 in the assay with SNB-75, in the assay on MDA-MB-231, with OVCAR-8, in the assay with ACHN, in the assay with UACC-62 and in the assay with SN12C was > 100 µM (inactive) each time. The GI50 in the assay with SK-MEL-5, in the assay with HCC 2998, in the assay on KM12, with NCI-H23, in the assay with SF-268 and in the assay with SK-MEL-2 was > 100 µM (inactive) each time. For the same compound, the GI50 in the assay on OVCAR-5 is > 100 µM (inactive).

As to `Cc1c2cnccc2c(C)c2c1c1ccccc1n2CCCN`, the GI50 with MOLT-4 is 0.0843 µM (active); with HOP-62, 0.637 µM (active); in the assay on Malme-3M, 0.982 µM (active); in the assay on RPMI-8226, 0.153 µM (active); in the assay on UACC-257, 1.09 µM (active); in the assay on SR, < 0.01 µM (active). For the same compound, the GI50 is 0.736 µM (active) with SNB-75; 0.171 µM (active) with MDA-MB-231; 0.259 µM (active) with OVCAR-8; 0.243 µM (active) in the assay with ACHN; 0.693 µM (active) with UACC-62; 0.401 µM (active) with SN12C. Further, the GI50 is 0.755 µM (active) in the assay on SK-MEL-5; 0.615 µM (active) in the assay with HCC 2998; 0.137 µM (active) with KM12; 0.474 µM (active) in the assay on NCI-H23; 0.721 µM (active) in the assay with SK-MEL-2; 0.667 µM (active) in the assay with OVCAR-5.

For `CC1=C(CCC(C)CO)O[C@H]2C[C@H]3[C@@H]4CC[C@H]5C[C@@H](O)CC[C@]5(C)[C@H]4CC(=O)[C@]3(C)[C@@H]12` (some centres not stated), the GI50 is 3.61 µM (inactive) in the assay with MOLT-4; 9.27 µM (inactive) in the assay with HOP-62; 19.1 µM (inactive) in the assay with Malme-3M; 2.4 µM (inactive) with RPMI-8226; 14.8 µM (inactive) in the assay on UACC-257; 13.4 µM (inactive) in the assay on SR. Also, the GI50 in the assay on SNB-75 is 20.6 µM (inactive); in the assay with MDA-MB-231, 18.1 µM (inactive); with OVCAR-8, 11.7 µM (inactive); in the assay with ACHN, 17.5 µM (inactive); in the assay on UACC-62, 6.17 µM (inactive); in the assay on HL-60 it was 2.94 µM (inactive). Moreover, the GI50 is 18.9 µM (inactive) in the assay on SN12C; 8.18 µM (inactive) in the assay on SK-MEL-5; 11.3 µM (inactive) in the assay on KM12; 14.9 µM (inactive) in the assay on NCI-H23; 19.1 µM (inactive) in the assay on SF-268; 11.7 µM (inactive) in the assay with SK-MEL-2. Moreover, the GI50 in the assay on OVCAR-5 was 27.4 µM (inactive).

In the case of `C[NH+]1[C@@H](Cc2ccccc2)C(=O)O[B-]1(F)c1ccccc1` (some centres not stated), the GI50 in the assay with MOLT-4, in the assay on HOP-62, in the assay with Malme-3M, in the assay on RPMI-8226, in the assay on UACC-257 and with SR was > 100 µM (inactive) each time. The GI50 in the assay on SNB-75, in the assay with MDA-MB-231, with OVCAR-8, in the assay on ACHN, in the assay with UACC-62 and in the assay on HL-60 was > 100 µM (inactive) each time. Besides, the GI50 in the assay on SN12C, in the assay on SK-MEL-5, with HCC 2998, in the assay on NCI-H23, in the assay on SF-268 and in the assay with OVCAR-5 was > 100 µM (inactive) each time.

For `CCN1C[C@]2(C)CC[C@H](OC)C34C5C[C@@H]6[C@@H](OC)C[C@@](OC)(C5[C@H]6OCc5ccccc5)C(C13)[C@H](OC(C)=O)[C@@H]42` (some centres not stated), the GI50 in the assay with MOLT-4 is 73.6 µM (inactive); in the assay on HOP-62, > 100 µM (inactive); in the assay with Malme-3M, > 100 µM (inactive); in the assay with RPMI-8226 it was > 100 µM (inactive); in the assay with UACC-257, 45.8 µM (inactive); with SR it was > 100 µM (inactive). Moreover, the GI50 in the assay on SNB-75 is 1.18 µM (inactive); with MDA-MB-231, > 100 µM (inactive); in the assay with OVCAR-8, > 100 µM (inactive); with ACHN it was > 100 µM (inactive); with UACC-62, > 100 µM (inactive); in the assay with HL-60, 6.95 µM (inactive). For the same compound, the GI50 in the assay on SN12C, in the assay on SK-MEL-5, in the assay with KM12, in the assay on NCI-H23, with SF-268 and with SK-MEL-2 was > 100 µM (inactive) throughout. In addition, in the assay with OVCAR-5, the GI50 was > 100 µM (inactive).
